System: Patient-derived fibroblasts, cells from HD patient (ID 090401)
Assay: Reversal of the HD-signature (mitochondrial behaviour variables) by dynamic imaging of patient-derived fibroblasts
Assay type: cell-based, human
Conditions: for recovery (weighted overall rescue of the diseased phenotype, discriminant equation on 7 HD-signature variables): 30 min incubation, 0% = diseased status, 100% = healthy status
Description: Fibroblasts were labelled with MitoTracker green, a cell-permeant mitochondrial dye not sensitive to mitochondrial membrane potential, for 30 minutes. Images were recorded from an epifluorescence microscope continuously for 6 minutes. Cells were kept at 37° C. for the duration of the image capture. For each experimental condition, 3 to 15 cells were recorded per well from three independent plates, i.e. up to 6000 individual mitochondria. The maximum duration for data acquisition was 30 minutes (i.e. five cells observed during 6 min). Images were captured with a Zeiss Axioplan II microscope along three dimensions in space and in time.
Patient-derived fibroblasts were cultured in DMEM containing 15% fetal calf serum. and 0.5% DMSO, a concentration known to be inert on the mitochondrial behaviour.
Cells were incubated with different doses of resveratrol or cyclosporine A (CSA) diluted in DMSO or with the vehicle only (DMSO) for 30 minutes and observed through time-lapse video-microscopy for another 30 minutes during dynamic image capture.
Resveratrol and CSA were tested at 4 doses spanning […] (10, 1, 0.1 and 0.05 μM).
The negative control was cells from HD patient (ID 090401) with the vehicle only and the positive control was cells from healthy patient (ID 071201) with the vehicle only.
The raw data obtained for each mitochondrion were expressed as a ratio (%) according to the following formula: DATA=(NC−Var)*100/(NC−PC) (NC=average value of the negative control; PC=average value of the positive control; Var=value of the variable).
Effects are expressed as a percent of control values as defined above, i.e. % of phenotypic rescue. 0% represents the diseased status while 100% represents the healthy status.
To express the weighted effect of the variables on the overall rescue, a discriminant equation was applied.

With `Oc1ccc(C=Cc2cc(O)cc(O)c2)cc1` [Resveratrol] the “recovery (weighted overall rescue of the diseased phenotype, discriminant equation on 7 HD-signature variables)” value (0.05 μM) was “detrimental effect with a mild worsening of the diseased status”, the “recovery (weighted overall rescue of the diseased phenotype, discriminant equation on 7 HD-signature variables)” value (10 μM) was “exceeds the healthy status” and the “overall effect / activity profile over the dose range (weighted dose-response on disease-modification)” value (doses 10, 1, 0.1 and 0.05 μM) was “disease-modifying capabilities and rescue of the disease status except at low dose”.
